Patent publication US20260001792A1, “METHOD FOR PRODUCING SLIME-SUPPRESSING AUXILIARY AGENT FOR REVERSE OSMOSIS MEMBRANE, SLIME-SUPPRESSING AUXILIARY AGENT FOR REVERSE OSMOSIS MEMBRANE, AND WATER TREATMENT METHOD” (ORGANO CORPORATION, priority 2022, published 2026)

Legend:
[1] = Effect of amount added of iodide ions on oxidation-reduction potential (ORP); type: physicochemical; settings: sodium hypochlorite 1 mg/L as Cl2, stirred 3 minutes after potassium iodide addition
Method: A sodium hypochlorite aqueous solution was added to ultrapure water prepared with a prescribed pH value in sufficient amount to provide 1 mg/L as Cl2, potassium iodide was then added to the solution and stirred for 3 minutes, and the oxidation-reduction potential (ORP) was then measured. […] The oxidation-reduction potential (ORP) was measured using an ORP meter (RM-2oP) manufactured by DKK-TOA Corporation.

[2] = Effects on membrane: flux and EC rejection rate before/after contact with agent
Method: The effects on a reverse osmosis membrane were evaluated for the case where the mixture of the slime-suppressing auxiliary agent for a reverse osmosis membrane (potassium iodide aqueous solution (KI)) and sodium hypochlorite (NaClO) from the example was used.
The flux and EC rejection rate of the reverse osmosis membrane are measured prior to contact with the agent • 2. The agent is brought into contact with the reverse osmosis membrane at a theoretical value for the CT value of 30,000 (mg/L as Cl^2×h) • 3. The flux and EC rejection rate of the reverse osmosis membrane are measured following the contact with the agent
The flux was calculated by dividing the permeate volume per prescribed time period at 25° C. by the membrane surface area and the operating pressure. The EC rejection rate was determined by measuring the conductivity of the permeate and the conductivity of the feed water using a conductivity measurement apparatus, with the EC rejection rate calculated as (100−[permeate conductivity/feed water conductivity]×100).

`[Na+].[O-]Cl` [Reference Example 10, sodium hypochlorite] showed an ORP ([1]; pH 7) of 638 mV.
In the case of `OCl` [NaClO, sodium hypochlorite], the Flux after contact ([2]; ESPA2, pH 7, after contact at CT value 30,000) is reported as 4.1 m/(d · MPa) and the Flux before contact ([2]; ESPA2, pH 7, baseline before contact with agent) is reported as 2.0 m/(d · MPa).
With `[Na+].[O-]Cl` [Reference Example 12, sodium hypochlorite] the ORP ([1]; pH 10) was 359 mV.
Molecule `[Na+].[O-]Cl` [Reference Example 8, sodium hypochlorite] has an ORP ([1]; pH 4) of 837 mV.
